Like-named read-outs stand apart in the source and are kept apart here.
Target: T1, 11β-HSD1 (Homo sapiens, UniProt P28845)
T1 construct: detecting cortisol generated from cortisterone by human liver microsomes; from tissue; host or cells: human liver microsomes
Assay: In vitro inhibition of 11β-HSD1, HTRF detection of cortisol generated from cortisone by human liver microsomes
Assay type: biochemical
Conditions: 1 hour at 37° C., pH 6.0, NADPH 200 μM, cortisone 80 nM, inhibition relative to carbenoxolone signal
Summary of the method: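 Cortisol formed from cortisone by human liver microsomes quantified by competitive HTRF immunoassay (XL665-cortisol, Eu-cryptate anti-cortisol antibody), 2 h detection, Em665/Em615 ratio converted via cortisol calibration curve. Percent inhibition relative to carbenoxolone signal; IC50 from curves.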

T1 sequence (P28845 whole entry): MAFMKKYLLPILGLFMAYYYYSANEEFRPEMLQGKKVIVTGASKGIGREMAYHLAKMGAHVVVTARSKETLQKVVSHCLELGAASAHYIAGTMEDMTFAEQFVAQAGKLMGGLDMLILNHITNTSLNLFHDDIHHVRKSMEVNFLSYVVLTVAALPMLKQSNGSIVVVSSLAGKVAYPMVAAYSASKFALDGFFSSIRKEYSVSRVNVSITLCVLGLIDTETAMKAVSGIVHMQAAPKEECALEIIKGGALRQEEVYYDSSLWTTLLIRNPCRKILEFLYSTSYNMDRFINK

SMILES	IC50 (11β-HSD IC50 (nM)) [nM]	IC50 (read-out: 11β-HSD IC50) [nM]
CC1(C)[C@H]2Cc3c(O)cccc3[C@]1(C)CCN2C(=O)c1cncn1-c1ccccc1 [Example 218, [(2R,6S)-10-Hydroxy-6,11,11-trimethyl-1,2,5,6-tetrahydro-4H-2,6-methano-benzo[d]azocin-3-yl]-(3-phenyl-3H-imidazol-4-yl)-methanone]	2710	–
CC1(C)[C@H]2Cc3cc(C#N)ccc3[C@]1(C)CCN2C(=O)c1ccc2nc[nH]c2c1 [Example 206, (2R,6S)-3-(3H-Benzoimidazole-5-carbonyl)-6,11,11-trimethyl-1,2,3,4,5,6-hexahydro-2,6-methano-benzo[d]azocine-9-carbonitrile]	47	–
CC12CCN(C(=O)c3ccc4nc[nH]c4c3)C(Cc3cc(CN)ccc31)C2(C)C (stereo not drawn) [Example 173, (9-Aminomethyl-6,11,11-trimethyl-1,2,5,6-tetrahydro-4H-2,6-methano-benzo[d]azocin-3-yl)-(3H-benzoimidazol-5-yl)-methanone]	1690	–
CC1(C)[C@H]2Cc3cc4nc(-c5cnccn5)[nH]c4cc3[C@]1(C)CCN2C(=O)c1ccc2nc[nH]c2c1 [Example 266, (3H-Benzoimidazol-5-yl)-[(6R,10S)-5,6,7,8,9,10-hexahydro-10,12,12-trimethyl-2-pyrazin-2-yl-6,10-methano-imidazo[5,4-i][3]benzazocin-7-yl]-methanone]	42	–
CC1(C)[C@H]2Cc3ccccc3[C@]1(C)CCN2C(=O)c1ccc(C(O)(C(F)(F)F)C(F)(F)F)cc1 [Example 339, [4-(2,2,2-Trifluoro-1-hydroxy-1-trifluoromethyl-ethyl)-phenyl]-[(2R,6S)-6,11,11-trimethyl-1,2,5,6-tetrahydro-4H-2,6-methano-benzo[d]azocin-3-yl]-methanone]	1270	–
CC1(C)[C@H]2Cc3c(O)cccc3[C@]1(C)CCN2C(=O)c1cccc2[nH]cnc12 [Example 18, (1H-Benzoimidazol-4-yl)-[(2R,6S)-10-hydroxy-6,11,11-trimethyl-1,2,5,6-tetrahydro-4H-2,6-methano-benzo[d]azocin-3-yl]-methanone]	3680	–
C[C@@H]1[C@H]2Cc3cc4nc(C5CC5)oc4cc3[C@]1(C)CCN2C(=O)c1ccc2nc[nH]c2c1 [Example 311, (3H-Benzoimidazol-5-yl)-[(6R,10R,12S)-2-cyclopropyl-5,6,7,8,9,10-hexahydro-10,12-dimethyl-6,10-methano-oxazolo[5,4-i][3]benzazocin-7-yl]-methanone]	424	–
CC12CCN(C(=O)c3ccc4[nH]cnc4c3)C(Cc3cccc(-c4cccnc4)c31)C2(C)C (stereo not drawn) [Example 309, (1H-Benzoimidazol-5-yl)-(6,11,11-trimethyl-7-pyridin-3-yl-1,2,5,6-tetrahydro-4H-2,6-methano-benzo[d]azocin-3-yl)-methanone]	184	–
CC[C@H]1[C@H]2Cc3ccc(O)cc3[C@]1(CC)CCN2C(=O)c1ccc2nc[nH]c2c1 (racemic) [Example 86, (3H-Benzoimidazol-5-yl)-(6,11-diethyl-8-hydroxy-1,2,5,6-tetrahydro-4H-2,6-methano-benzo[d]azocin-3-yl)-methanone]	2400	–
CC12CCN(C(=O)c3ccc4nc[nH]c4c3)C(Cc3cc(C(=O)O)ccc31)C2(C)C (stereo not drawn) [Example 154, 3-(3H-Benzoimidazole-5-carbonyl)-6,11,11-trimethyl-1,2,3,4,5,6-hexahydro-2,6-methano-benzo[d]azocine-9-carboxylic acid]	1660	–
CC1(C)[C@H]2Cc3c(O)cccc3[C@]1(C)CCN2C(=O)c1ccc(CNC(=O)c2ccccc2)cc1 [Example 125, N-{4-[(2R,6S)-10-Hydroxy-6,11,11-trimethyl-1,2,5,6-tetrahydro-4H-2,6-methano-benzo[d]azocine-3-carbonyl]-benzyl}-benzamide]	989	–
Cc1cnc(-c2nc3cc4c(cc3o2)[C@]2(C)CCN(C(=O)c3ccc5nc[nH]c5c3)[C@H](C4)[C@H]2C)cn1 [Example 333, (3H-Benzoimidazol-5-yl)-[(6R,10R,12S)-5,6,7,8,9,10-hexahydro-10,12-dimethyl-2-(5-methyl-pyrazin-2-yl)-6,10-methano-oxazolo[5,4-i][3]benzazocin-7-yl]-methanone]	84	–
CC12CCN(C(=O)c3ccc4nc[nH]c4c3)C(Cc3cc(C#N)ccc31)C2(C)C (stereo not drawn) [Example 96, 3-(1H-Benzoimidazole-5-carbonyl)-6,11,11-trimethyl-1,2,3,4,5,6-hexahydro-2,6-methano-benzo[d]azocine-9-carbonitrile]	95	–
CNC(=O)c1cccc(C(=O)N2CC[C@@]3(C)c4cccc(O)c4C[C@@H]2C3(C)C)c1 [Example 39, 3-[(2R,6S)-10-Hydroxy-6,11,11-trimethyl-1,2,5,6-tetrahydro-4H-2,6-methano-benzo[d]azocine-3-carbonyl]-N-methyl-benzamide]	1590	–
CC1(C)[C@H]2Cc3c(O)cccc3[C@]1(C)CCN2C(=O)c1ccc2scnc2c1 [Example 45, Benzothiazol-5-yl-[(2R,6S)-10-hydroxy-6,11,11-trimethyl-1,2,5,6-tetrahydro-4H-2,6-methano-benzo[d]azocin-3-yl]-methanone]	384	–
CC12CCN(C(=O)c3ccc4nc[nH]c4c3)C(CCc3ccccc31)C2 (stereo not drawn) [Example 98, (3H-Benzoimidazol-5-yl)-(1-methyl-11-aza-tricyclo[8.3.1.0*2,7*]tetradeca-2,4,6-trien-11-yl)-methanone]	–	125
Cc1cc2c(cc1O)C[C@@H]1N(C(=O)c3ccc4nc[nH]c4c3)CC[C@@]2(C)C1(C)C (stereo in doubt) [Example 68, (3H-Benzoimidazol-5-yl)-[(2S,6R)-9-hydroxy-6,8,11,11-tetramethyl-1,2,5,6-tetrahydro-4H-2,6-methano-benzo[d]azocin-3-yl]-methanone]	372	–
C[C@@H]1[C@H]2Cc3ccc(-c4nnn[nH]4)cc3[C@]1(C)CCN2C(=O)c1ccc2nc[nH]c2c1 [Example 228, (2R,6R,11S)-(3H-Benzoimidazol-5-yl)-[6,11-dimethyl-8-(1H-tetrazol-5-yl)-1,2,5,6-tetrahydro-4H-2,6-methano-benzo[d]azocin-3-yl]-methanone]	236	–
CC1(C)[C@H]2Cc3cc4nc[nH]c4cc3[C@]1(C)CCN2C(=O)c1ccc2nc[nH]c2c1 [Example 239, (3H-Benzoimidazol-5-yl)-[(6R,10S)-5,6,7,8,9,10-hexahydro-10,12,12-trimethyl-6,10-methano-1H-imidazo[5,4-i][3]benzazocin-7-yl]-methanone]	24	–
CN(C)S(=O)(=O)c1ccc2c(c1)C[C@H]1N(C(=O)c3ccc4nc[nH]c4c3)CC[C@]2(C)C1(C)C [Example 237, (2R,6S)-3-(3H-Benzoimidazole-5-carbonyl)-6,11,11-trimethyl-1,2,3,4,5,6-hexahydro-2,6-methano-benzo[d]azocine-9-sulfonic acid dimethylamide]	916	–
CC1(C)[C@H]2Cc3c(O)cccc3[C@]1(C)CCN2C(=O)c1c[nH]c2ccccc12 [Example 118, [(2R,6S)-10-Hydroxy-6,11,11-trimethyl-1,2,5,6-tetrahydro-4H-2,6-methano-benzo[d]azocin-3-yl]-(1H-indol-3-yl)-methanone]	72	–
CC1(C)[C@H]2Cc3c(O)cccc3[C@]1(C)CCN2C(=O)c1ccc(CN2CCCC2=O)cc1 [Example 130, 1 -{4-[(2R,6S)-10-Hydroxy-6,11,11-trimethyl-1,2,5,6-tetrahydro-4H-2,6-methano-benzo[d]azocine-3-carbonyl]-benzyl}-pyrrolidin-2-one]	1610	–
Cn1c(=O)[nH]c2cc(C(=O)N3CC[C@@]4(C)c5cccc(O)c5C[C@@H]3C4(C)C)ccc21 [Example 29, 5-[(2R,6S)-10-Hydroxy-6,11,11-trimethyl-1,2,5,6-tetrahydro-4H-2,6-methano-benzo[d]azocine-3-carbonyl]-1-methyl-1,3-dihydro-benzoimidazol-2-one]	1730	–
CN(C)C(=O)c1ccc(C(=O)N2CC[C@@]3(C)c4cccc(O)c4C[C@@H]2C3(C)C)cc1 [Example 37, 4-[(2R,6S)-10-Hydroxy-6,11,11-trimethyl-1,2,5,6-tetrahydro-4H-2,6-methano-benzo[d]azocine-3-carbonyl]-N,N-dimethyl-benzamide]	998	–
CC1(C)[C@H]2Cc3cc4oc(C5CC5)nc4cc3[C@]1(C)CCN2C(=O)c1ccc2nc[nH]c2c1 [Example 302, (3H-Benzoimidazol-5-yl)-[(6R,10S)-2-cyclopropyl-5,6,7,8,9,10-hexahydro-10,12,12-trimethyl-6,10-methano-oxazolo[4,5-i][3]benzazocin-7-yl]-methanone]	35	–
Cn1cnc2ccc(C(=O)N3CC[C@@]4(C)c5cccc(O)c5C[C@@H]3C4(C)C)cc21 [Example 81, [(2R,6S)-10-Hydroxy-6,11,11-trimethyl-1,2,5,6-tetrahydro-4H-2,6-methano-benzo[d]azocin-3-yl]-(3-methyl-3H-benzoimidazol-5-yl)-methanone]	463	–
CC1(C)[C@H]2Cc3ccccc3[C@]1(C)CCN2C(=O)c1ccc(N)c(F)c1 [Example 296, (4-Amino-3-fluoro-phenyl)-[(2R,6S)-6,11,11-trimethyl-1,2,5,6-tetrahydro-4H-2,6-methano-benzo[d]azocin-3-yl]-methanone]	32	–
CC(=O)c1cccc(C(=O)N2CC[C@@]3(C)c4ccccc4C[C@@H]2C3(C)C)c1 [Example 307, 1-{3-[(2R,6S)-6,11,11-Trimethyl-1,2,5,6-tetrahydro-4H-2,6-methano-benzo[d]azocine-3-carbonyl]-phenyl}-ethanone]	979	–
CCNC(=O)c1ccc(C(=O)N2CC[C@@]3(C)c4cccc(O)c4C[C@@H]2C3(C)C)cc1 [Example 138, N-Ethyl-4-[(2R,6S)-10-hydroxy-6,11,11-trimethyl-1,2,5,6-tetrahydro-4H-2,6-methano-benzo[d]azocine-3-carbonyl]-benzamide]	2810	–
CC1CN(Cc2ccc(C(=O)N3CC[C@@]4(C)c5cccc(O)c5C[C@@H]3C4(C)C)cc2)CCO1 (stereo partly drawn) [Example 142]	689	–
